# Data taken from the supplement of paper PMC13380429.
# ± gives the standard deviation of the averaged measurements.
# What was measured:
# Conditions in all cases: 72 h
# Calu-3 [1] = assay: relative viability EC50 (midpoint between 100% and the lowest measured viability); higher = less toxic
# Caco-2 [2] = assay: as above
# U2OS [3] = assay: as above
# HepG2 [4] = assay: as above
# Vero E6 [5] = assay: as above
# Calu-3 [6] = assay: drug sensitivity score (DSS) for viability; higher = more toxic; extreme values may be limits of the assay
# Caco-2 [7] = assay: as above
# U2OS [8] = assay: as above
# HepG2 [9] = assay: as above
# Vero E6 [10] = assay: as above
# Calu-3 [11] = assay: cell viability relative to DMSO; higher = less toxic
# Caco-2 [12] = assay: as above
# U2OS [13] = assay: as above
# HepG2 [14] = assay: as above
# Vero E6 [15] = assay: as above
SMILES,relative viability EC50 (Calu-3 [1]) [µM],relative viability EC50 (Caco-2 [2]) [µM],relative viability EC50 (U2OS [3]) [µM],relative viability EC50 (HepG2 [4]) [µM],relative viability EC50 (Vero E6 [5]) [µM],drug sensitivity score (Calu-3 [6]),drug sensitivity score (Caco-2 [7]),drug sensitivity score (U2OS [8]),drug sensitivity score (HepG2 [9]),drug sensitivity score (Vero E6 [10]),cell viability (Calu-3 [11]; 1 nM) [%],cell viability (Calu-3 [11]; 10 nM) [%],cell viability (Calu-3 [11]; 100 nM) [%],cell viability (Calu-3 [11]; 1000 nM) [%],cell viability (Calu-3 [11]; 10000 nM) [%],cell viability (Caco-2 [12]; 1 nM) [%],cell viability (Caco-2 [12]; 10 nM) [%],cell viability (Caco-2 [12]; 100 nM) [%],cell viability (Caco-2 [12]; 1000 nM) [%],cell viability (Caco-2 [12]; 10000 nM) [%],cell viability (U2OS [13]; 1 nM) [%],cell viability (U2OS [13]; 10 nM) [%],cell viability (U2OS [13]; 100 nM) [%],cell viability (U2OS [13]; 1000 nM) [%],cell viability (U2OS [13]; 10000 nM) [%],cell viability (HepG2 [14]; 1 nM) [%],cell viability (HepG2 [14]; 10 nM) [%],cell viability (HepG2 [14]; 100 nM) [%],cell viability (HepG2 [14]; 1000 nM) [%],cell viability (HepG2 [14]; 10000 nM) [%],cell viability (Vero E6 [15]; 1 nM) [%],cell viability (Vero E6 [15]; 10 nM) [%],cell viability (Vero E6 [15]; 100 nM) [%],cell viability (Vero E6 [15]; 1000 nM) [%],cell viability (Vero E6 [15]; 10000 nM) [%]
O=C(O)CCc1c(C(=O)O)[nH]c2cc(Cl)cc(Cl)c12,> 10,> 10,> 10,> 10,> 10,0,0,0,0,0,91.6,96.3,93.2,97.5,106,92.8,104,90.9,102,99.4,96.2,103,95.9,99.7,97.5,102,92.5,94.2,107,105,99.9,102,102,94.3,102
O=C(O)Cn1c(C(=O)Nc2nc(-c3ccccc3Cl)cs2)cc2ccccc21,> 10,> 10,> 10,> 10,> 10,0,0,0,0,0,100,92.5,99.4,103,102,103,99.9,95.1,89.5,110,96,101,95.6,101,98.5,106,99.2,101,104,93.3,105,106,103,108,97.4
C#C[C@]1(OC(C)=O)CC[C@H]2[C@@H]3CCC4=CC(=NO)CC[C@@H]4[C@H]3CC[C@@]21CC (mixture of isomers) [norgestimate],> 10,> 10,> 10,> 10,> 10,0,0,0,0,0,98.6,104,102,106,104,98.3,87.7,73.4,93,92.4,97,104,94.3,99.6,96.2,108,97.6,107,91.3,111,99,94,99.2,99.6,102
CC[C@@H](C)c1ccc(NC(=O)Cn2cnc3c2c(=O)n(C)c(=O)n3C)cc1 (racemic),> 10,> 10,> 10,> 10,> 10,0,0,0,0,0,99.4,100,98.6,99,95.6,98.5,90.1,89.8,97.3,92.5,98.6,97.1,98.3,96.9,98.6,95.9,100,96.6,100,93.4,96,98.3,92.6,94,106
CC(=C(CCO)SSCC1CCCO1)N(C=O)Cc1cnc(C)nc1N (stereo in doubt) [fursultiamine],> 10,> 10,> 10,> 10,> 10,0,0,0,0,0,98.5,101,108,110,114,112,91.6,97.6,106,96,101,102,98.7,97.8,98.2,93.3,87.5,90.2,110,97.8,106,95.5,99.2,97.3,102
C[C@H]1NC(=O)NC1=O [5-methylhydantoin-(D)],> 10,> 10,> 10,> 10,> 10,0,0,0,0,0,95.5 ± 5.9,99.6 ± 5,94.5 ± 3.2,102 ± 3,101 ± 6.9,97.5 ± 3.3,94.4 ± 0.14,104 ± 2.3,95.3 ± 5.5,101 ± 2.6,97.85 ± 0.49,100 ± 5,98.8 ± 5.1,98.2 ± 2.3,100 ± 2.4,93 ± 4.9,100 ± 0.64,93.3 ± 5.9,98.1 ± 8.6,106 ± 2.8,97.1 ± 7.1,102 ± 4.5,96.4 ± 0.71,99.4 ± 0.57,100 ± 8
C[C@H](Nc1ncnc2[nH]cnc12)c1cc2ccc(F)cc2nc1-c1ccccn1 [AMG319],> 10,> 10,> 10,> 10,> 10,0,0.2 ± 0.28,0,0,0.75 ± 0.35,103 ± 0.64,97.2 ± 1.3,108 ± 8.1,100 ± 13,96.5 ± 2.5,100 ± 4.2,104 ± 6.4,98.5 ± 1.3,93.4 ± 5.8,95 ± 13,99,101,98.3,102,101,103 ± 2.3,96.5 ± 11,115 ± 5,97.8 ± 6.2,99.3 ± 5.4,98.8 ± 3.9,97.8 ± 0.85,98.5 ± 1.2,92.2 ± 2.3,83.7 ± 4.1
CSc1nc(-c2ccc(F)cc2)c(-c2ccnc(N[C@@H](C)c3ccccc3)c2)[nH]1 [ML3403],> 10,,> 10,> 10,> 10,0,1.9,0,0.1,0,101,99.1,103,94.5,89.8,94.6,93.4,97.3,94.2,74.2,99.9,99.1,100,94.8,90.9,100,101,97.6,105,86.5,102,105,101,99.8,88.7
COCCCOc1cc(C[C@@H](C[C@H](N)[C@@H](O)C[C@H](C(=O)NCC(C)(C)C(N)=O)C(C)C)C(C)C)ccc1OC [aliskiren-hemifumarate],> 10,,> 10,> 10,> 10,0,3.7,0,0,0,88.8,101,96.5,96,88,84.8,81.9,70.4,89.1,100,97.2,102,101,103,93.7,111,103,103,87.5,100,93.8,95.3,91.8,93.9,93.2
Cc1nc(C#Cc2ccnc(Cl)c2)c(C)n1-c1ccc(F)cc1 [basimglurant],> 10,,> 10,> 10,> 10,0,3,0,1.4,0,88.4,90.6,92.2,92.4,95.8,101,95.2,101,90.5,66.5,91.4,96.1,101,91.9,93.2,104,99.5,102,95.3,77.4,106,101,96.9,102,91.3
O[C@H]1[C@H](O)[C@@H](O)CN2CC[C@H](O)[C@H]12 [castanospermine],> 10,> 10,,> 10,> 10,0,0,,0,0,102,96.6,96.9,103,104,100,99,106,98.2,100,,,,,,101,99.3,102,110,97.5,97.4,99.3,91,102,91.8
CCOc1ccccc1-n1c(C(C)N2CCN(C(=O)COc3ccc(Cl)cc3)CC2)nc2ccccc2c1=O (stereo not given) [erastin],1.67,2.76,,2.27,2.92,7.8,3.5,,6.9,5.1,113,97.4,109,81.3,13.5,103,94.8,96.9,97.1,43.4,,,,,,96.6,102,109,89.8,5.5,96,99.4,95.8,97.2,15.5
O=C(Nc1ccc([N+](=O)[O-])cc1Cl)c1cc(Cl)ccc1O [niclosamide],> 10,2.54,,3.01,3.34,0.6,5.6,1.2,5.3,4.2,106,98.4,92.2,91.3,86.2,101,102,95.3,93.7,17.6,101,104,97.2,103,68.9,104,99.4,109,98,9.9,101,99.7,102,102,20
O=C1[C@H]2CCCC[C@H]2C(=O)N1CCCCN1CCN(c2nsc3ccccc23)CC1 [perospirone],> 10,,> 10,> 10,> 10,0,3.4,0,2,0,94.1,101,99.3,98.7,89,86.7,87,91.8,92.9,65.9,96.2,99.7,104,92.9,92.8,97.4,88.9,89.1,89.1,86.1,104,98.7,102,101,107
Cc1cc(CC(=O)O)n(C)c1C(=O)c1ccc(Cl)cc1 [zomepirac],> 10,,> 10,> 10,> 10,0,7.3,0,0.1,0,94.7,99.6,97.4,94.3,103,94.4,97.7,75.3,74.4,77.8,96.6,101,92.9,97.7,99.6,88,84.9,84.7,101,91.6,105,94.6,104,94.4,93.7
